Reference: US20230011869A1 (Hoffmann-La Roche Inc., priority 2018, published 2023)
Counter-ions that a name gives are not always drawn. Like-named read-outs stand apart in the source and are kept apart here.

Test system: Acinetobacter baumannii ATCC17978
Test: Antimicrobial susceptibility testing: 90% growth inhibitory concentration (IC90) determination, Iso-Sensitest broth
Format: cell-based
In short: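 A. baumannii ATCC17978 grown in Iso-Sensitest broth across 10 compound concentrations at 35±2 °C.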

[1] = Acinetobacter baumannii, ATCC17978, 16 h, read-out: ATCC17978 IC90, 90% growth inhibitory concentration, Acinetobacter baumannii ATCC17978, Iso-Sensitest broth, OD 600 nm over 16 h
[2] = 90% growth inhibitory concentration, Acinetobacter baumannii ATCC17978, Iso-Sensitest broth, OD 600 nm over 16 h, read-out: ATCC17978 IC90

IC90 [2] [nM] | SMILES | IC90 [1] [nM]
 | Cc1cc(Nc2nccn3c(-c4ccc(OC(F)F)cc4)cnc23)ccc1C(=O)N1CCN(C(=O)C2CCNCC2O)CC1 (stereo not shown) [Example 523, [4-[[3-[4-(difluoromethoxy)phenyl]imi-dazo[1,2-a]pyrazin-8-yl]amino]-2-methylphenyl]-[4-(3-hydroxypiperidine-4-carbonyl)piperazin-1-yl]methanone; hydrochloride] | 390
 | CNCCNC(=O)N1CCN(C(=O)c2ccc(Nc3nccn4c(-c5ccc(OC(F)F)cc5)cnc34)cc2C)CC1 [Example 524, 4-[4-[[3-[4-(difluoromethoxy)phenyl]imi-dazo[1,2-a]pyrazin-8-yl]amino]-2-methylbenzoyl]-N-[2-(methylamino)eth-yl]piperazine-1-carboxamide; hydrochloride] | 470
 | Cc1cc(Nc2nccn3c(-c4ccc(OC(F)F)cc4)cnc23)ccc1C(=O)N1CCN(C(=O)[C@@H](N)CCC(N)=O)CC1 [Example 525, (4S)-4-amino-5-[4-[4-[[3-[4-(difluoromethoxy)phenyl]imi-dazo[1,2-a]pyrazin-8-yl]amino]-2-methylbenzoyl]piperazin-1-yl]-5-oxopentanamide; hydrochlo-ride] | 510
 | Cc1cc(Nc2nccn3c(-c4ccc(OC(F)F)cc4)cnc23)ccc1C(=O)N1CCN(C(=O)[C@@H](N)CO)CC1 [Example 526, (2S)-2-amino-1-[4-[4-[[3-[4-(difluoromethoxy)phenyl]imi-dazo[1,2-a]pyrazin-8-yl]amino]-2-methylbenzoyl]piperazin-1-yl]-3-hydroxypropan-1-one; hydrochloride] | 560
 | Cc1cc(Nc2nccn3c(-c4ccc(OC(F)F)cc4)cnc23)ccc1C(=O)N1CCN(C(=O)[C@@H](N)[C@@H](C)O)CC1 [Example 527, (2S,3R)-2-amino-1-[4-[4-[[3-[4-(difluoromethoxy)phenyl]imi-dazo[1,2-a]pyrazin-8-yl]amino]-2-methylbenzoyl]piperazin-1-yl]-3-hydroxybutan-1-one; hydrochloride] | 600
 | Cc1cc(Nc2nccn3c(-c4ccc(OC(F)F)cc4)cnc23)ccc1C(=O)N1CCN(C(=O)[C@@H](N)CC(N)=O)CC1 [Example 528, (3S)-3-amino-4-[4-[4-[[3-[4-(difluoromethoxy)phenyl]imi-dazo[1,2-a]pyrazin-8-yl]amino]-2-methylbenzoyl]piperazin-1-yl]-4-oxobutanamide; hydrochloride] | 610
 | Cc1cc(Nc2nccn3c(-c4ccc(OC(F)F)cc4)cnc23)ccc1C(=O)N1CCN(C(=O)[C@H]2C[C@H](O)CN2)CC1 [Example 529, [4-[[3-[4-(difluoromethoxy)phenyl]imi-dazo[1,2-a]pyrazin-8-yl]amino]-2-methylphenyl]-[4-[(2R,4S)-4-hydroxypyrrolidine-2-carbonyl]piperazin-1-yl]methanone; hydrochloride] | 690
 | COc1ccc(-c2cnc3c(Nc4ccc(C(=O)N5CCN(C(=O)[C@H](CCN)NC(=O)CC[C@H](N)C(=O)O)CC5)c(C)c4)nccn23)c(F)c1F [Example 532, (2S)-2-amino-5-[[(2S)-4-amino-1-[4-[4-[[3-(2,3-difluoro-4-methoxyphenyl)imidazo[1,2-a]pyrazin-8-yl]amino]-2-methylbenzoyl]piperazin-1-yl]-1-oxobutan-2-yl]amino]-5-oxopentanoic acid; hydrochloride] | 1200
 | COc1ccc(-c2cnc3c(Nc4ccc(C(=O)N5CCN(C(=O)[C@H](CCCN)NC(=O)CC[C@H](N)C(=O)O)CC5)c(C)c4)nccn23)c(F)c1F [Example 533, (2S)-2-amino-5-[[(2S)-5-amino-1-[4-[4-[[3-(2,3-difluoro-4-methoxyphenyl)imidazo[1,2-a]pyrazin-8-yl]amino]-2-methylbenzoyl]piperazin-1-yl]-1-oxopentan-2-yl]amino]-5-oxopentanoic acid; hydrochloride] | 1500
 | COc1ccc(-c2cnc3c(Nc4ccc(C(=O)N5CCN(C(=O)[C@H](CCCCN)NC(=O)[C@@H](N)CCC(=O)O)CC5)c(C)c4)nccn23)c(F)c1F [Example 537, (4S)-4-amino-5-[[(2S)-6-amino-1-[4-[4-[[3-(2,3-difluoro-4-methoxyphenyl)imidazo[1,2-a]pyrazin-8-yl]amino]-2-methylbenzoyl]piperazin-1-yl]-1-oxohexan-2-yl]amino]-5-oxopentanoic acid; hydrochloride] | 4400
88 | Cc1cc(Nc2nccn3c(-c4ccc(OCC#N)c(F)c4Cl)cnc23)ccc1C(=O)N1CCC(C(=O)N2CCN[C@@H](CO)C2)CC1 [Example 539, 2-[3-chloro-2-fluoro-4-[8-[4-[4-[(3R)-3-(hydroxymethyl)piperazine-1-carbonyl]piperidine-1-carbonyl]-3-methylanilino]imidazo[1,2-a]pyrazin-3-yl]phenoxy]acetonitrile; for-mic acid] | 
 | CCc1cc(Nc2nccn3c(-c4ccc(OCC#N)c(F)c4F)cnc23)ccc1C(=O)N1CCC(C(=O)N2CCN[C@@H](CO)C2)CC1 [Example 540, 2-[4-[8-[3-ethyl-4-[4-[(3R)-3-(hydroxymethyl)piperazine-1-carbonyl]piperidine-1-carbonyl]anilino]imidazo[1,2-a]pyrazin-3-yl]-2,3-difluorophenoxy]acetonitrile; 2,2,2-trifluoroacetic acid] | 90
 | CCc1cc(Nc2nccn3c(-c4ccc(OCC#N)c(F)c4F)cnc23)ccc1C(=O)N1CCC(C(=O)N2CCN[C@H](CO)C2)CC1 [Example 541, 2-[4-[8-[3-ethyl-4-[4-[(3S)-3-(hydroxymethyl)piperazine-1-carbonyl]piperidine-1-carbonyl]anilino]imidazo[1,2-a]pyrazin-3-yl]-2,3-difluorophenoxy]acetonitrile; 2,2,2-trifluoroacetic acid] | 96
98 | Cc1cc(Nc2nccn3c(-c4ccc(OCC#N)c(F)c4F)cnc23)ccc1C(=O)N1CCC(C(=O)N2CCN[C@H](CO)C2)CC1 [Example 542, 2-[2,3-difluoro-4-[8-[4-[4-[(3S)-3-(hydroxymethyl)piperazine-1-carbonyl]piperidine-1-carbonyl]-3-methylanilino]imidazo[1,2-a]pyrazin-3-yl]phenoxy]acetonitrile; for-mic acid] | 
99 | Cc1cc(Nc2nccn3c(-c4ccc(OCC#N)c(F)c4F)cnc23)ccc1C(=O)N1CCC(C(=O)N2CCN[C@@H](CO)C2)CC1 [Example 543, 2-[2,3-difluoro-4-[8-[4-[4-[(3R)-3-(hydroxymethyl)piperazine-1-carbonyl]piperidine-1-carbonyl]-3-methylanilino]imidazo[1,2-a]pyrazin-3-yl]phenoxy]acetonitrile; for-mic acid] | 
 | COc1ccc(-c2cnc3c(Nc4ccc(C(=O)N5CCC(C(=O)N6CCN[C@@H](CO)C6)CC5)c(C)c4)nccn23)c(F)c1F [Example 544, [4-[[3-(2,3-difluoro-4-methoxyphenyl)imidazo[1,2-a]pyrazin-8-yl]amino]-2-methylphenyl]-[4-[(3R)-3-(hydroxymethyl)piperazine-1-carbonyl]piperidin-1-yl]methanone; formic acid] | 100
 | Cc1cc(Nc2nccn3c(-c4ccc(OC(F)F)cc4)cnc23)ccc1C(=O)N1CCC(C(=O)NC[C@@H]2CNC(=O)O2)CC1 [Example 548, (R)-1-(4-((3-(4-(difluoromethoxy)phenyl)imidazo [1,2-a]pyrazin-8-yl)amino)-2-methylbenzoyl)-N-((2-oxooxazolidin-5-yl)methyl)piperidine-4-carboxamide] | 203
 | COc1ccc(-c2cnc3c(Nc4ccc(C(=O)N5CCN(C(=O)[C@@H]6C[C@@H](OC(=O)[C@@H](N)[C@@H](C)O)CN6)CC5)c(C)c4)nccn23)c(F)c1F [Example 549, [(3R,5S)-5-[4-[4-[[3-(2,3-difluoro-4-methoxy-phenyl)imidazo[1,2-a]pyrazin-8-yl]amino]-2-methyl-benzoyl]piperazine-1-carbonyl]pyrrolidin-3-yl] (2S,3R)-2-amino-3-hydroxy-butanoate formate] | 75
 | COc1ccc(-c2cnc3c(Nc4ccc(C(=O)N5CCN(C(=O)[C@@H]6C[C@@H](OC(=O)[C@@H](N)CCCNC(=N)N)CN6)CC5)c(C)c4)nccn23)c(F)c1F [Example 550, [(3R,5S)-5-[4-[4-[[3-(2,3-difluoro-4-methoxy-phenyl)imidazo[1,2-a]pyrazin-8-yl]amino]-2-methyl-benzoyl]piperazine-1-carbonyl]pyrrolidin-3-yl] 2-amino-5-guanidino-pentanoate formate] | 153
 | COc1ccc(-c2cnc3c(Nc4ccc(C(=O)N5CCN(C(=O)[C@@H]6C[C@@H](OC(=O)[C@@H]7CCCN7)CN6)CC5)c(C)c4)nccn23)c(F)c1F [Example 551, [(3R,5S)-5-[4-[4-[[3-(2,3-difluoro-4-methoxy-phenyl)imidazo[1,2-a]pyrazin-8-yl]amino]-2-methyl-benzoyl]piperazine-1-carbonyl]pyrrolidin-3-yl] pyrrolidine-2-carboxylate formate] | 196
 | COc1ccc(-c2cnc3c(Nc4ccc(C(=O)N5CCN(C(=O)[C@@H]6C[C@@H](OC(=O)[C@@H](N)C(C)C)CN6)CC5)c(C)c4)nccn23)c(F)c1F [Example 552, [(3R,5S)-5-[4-[4-[[3-(2,3-difluoro-4-methoxy-phenyl)imidazo[1,2-a]pyrazin-8-yl]amino]-2-methyl-benzoyl]piperazine-1-carbonyl]pyrrolidin-3-yl] (2S)-2-amino-3-methyl-butanoate] | 186
 | Cc1cc(Nc2nccn3c(-c4ccc(OC(F)F)cc4)cnc23)ccc1C(=O)N1CCC(C(=O)NC[C@H](O)CN)CC1 [Example 553, (R)-N-(3-amino-2-hydroxypropyl)-1-(4-((3-(4-(difluoromethoxy)phenyl)imidazo [1,2-a]pyrazin-8-yl)amino)-2-methylbenzoyl)piperidine-4-carboxamide formate] | 227
